Reference: ChEMBL document CHEMBL1909046, “DrugMatrix in vitro pharmacology data”

Experiments:
[1] = DRUGMATRIX: GABAA, Chloride Channel, TBOB radioligand binding (ligand: [3H] TBOB); type: cell membranes, Rattus norvegicus, Wistar, Cerebral cortex, Membrane; conditions: Not Active = under 50% inhibition at 10 µM
[2] = biological target: Insulin receptor (Rattus norvegicus, UniProt P15127); type: cell membranes, Wistar, Liver, Membrane; note: in other assays of this panel Not Active means under 50% inhibition at 10 µM
Sequence of Insulin receptor (P15127 27-759 limits assumed): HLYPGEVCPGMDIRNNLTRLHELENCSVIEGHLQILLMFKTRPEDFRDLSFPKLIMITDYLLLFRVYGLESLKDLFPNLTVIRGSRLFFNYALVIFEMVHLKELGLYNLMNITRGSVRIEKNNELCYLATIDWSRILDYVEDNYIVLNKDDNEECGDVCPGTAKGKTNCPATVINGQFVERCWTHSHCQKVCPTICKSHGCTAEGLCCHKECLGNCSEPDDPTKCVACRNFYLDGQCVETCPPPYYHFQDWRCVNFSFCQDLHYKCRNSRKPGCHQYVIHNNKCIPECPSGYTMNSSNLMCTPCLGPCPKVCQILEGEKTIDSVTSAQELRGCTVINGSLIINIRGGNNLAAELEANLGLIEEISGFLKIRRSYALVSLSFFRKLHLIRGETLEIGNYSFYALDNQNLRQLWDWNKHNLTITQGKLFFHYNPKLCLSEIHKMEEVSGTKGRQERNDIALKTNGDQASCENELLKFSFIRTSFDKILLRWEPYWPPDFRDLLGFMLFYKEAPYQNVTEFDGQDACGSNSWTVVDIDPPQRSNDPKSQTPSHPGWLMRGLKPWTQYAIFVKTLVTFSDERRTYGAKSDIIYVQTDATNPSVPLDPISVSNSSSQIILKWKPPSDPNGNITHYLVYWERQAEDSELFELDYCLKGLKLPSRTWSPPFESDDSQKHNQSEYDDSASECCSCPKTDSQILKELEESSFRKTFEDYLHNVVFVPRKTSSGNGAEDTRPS
Sequence of Insulin receptor (P15127 764-1383 limits assumed): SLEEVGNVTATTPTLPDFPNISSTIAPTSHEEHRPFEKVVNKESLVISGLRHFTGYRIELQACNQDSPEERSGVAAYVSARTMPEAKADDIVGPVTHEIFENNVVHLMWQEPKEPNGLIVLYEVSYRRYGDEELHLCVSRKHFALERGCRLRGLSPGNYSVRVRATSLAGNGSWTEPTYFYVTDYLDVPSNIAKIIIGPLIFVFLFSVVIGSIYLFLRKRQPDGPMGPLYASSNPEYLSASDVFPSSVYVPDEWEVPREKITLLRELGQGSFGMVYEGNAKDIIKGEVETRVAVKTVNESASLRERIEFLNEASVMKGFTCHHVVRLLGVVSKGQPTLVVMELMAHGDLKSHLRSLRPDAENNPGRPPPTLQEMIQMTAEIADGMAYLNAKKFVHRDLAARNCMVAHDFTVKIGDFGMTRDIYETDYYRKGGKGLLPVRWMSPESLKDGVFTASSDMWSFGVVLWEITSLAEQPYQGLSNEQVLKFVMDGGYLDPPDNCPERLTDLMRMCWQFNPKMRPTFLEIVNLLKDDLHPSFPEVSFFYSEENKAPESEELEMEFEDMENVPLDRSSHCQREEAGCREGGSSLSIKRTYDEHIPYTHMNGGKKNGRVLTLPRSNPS

[3] = biological target: Melanocortin receptor 4 (Homo sapiens, UniProt P32245); type: cell membranes, Membrane; conditions: hek293; note: in other assays of this panel Not Active means under 50% inhibition at 10 µM
Sequence of Melanocortin receptor 4 (P32245 whole entry): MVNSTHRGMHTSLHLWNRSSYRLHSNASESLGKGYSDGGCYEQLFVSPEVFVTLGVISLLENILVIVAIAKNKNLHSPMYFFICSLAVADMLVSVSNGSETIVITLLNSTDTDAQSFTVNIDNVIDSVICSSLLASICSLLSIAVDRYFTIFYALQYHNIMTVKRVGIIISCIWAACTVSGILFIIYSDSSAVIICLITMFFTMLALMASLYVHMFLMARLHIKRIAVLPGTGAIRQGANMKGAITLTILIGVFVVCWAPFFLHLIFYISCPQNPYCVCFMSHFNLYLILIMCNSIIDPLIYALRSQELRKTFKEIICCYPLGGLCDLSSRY

[4] = DRUGMATRIX: Phosphodiesterase PDE3 enzyme inhibition (substrate: [3H]cAMP + cAMP); type: tissue-based, Homo sapiens; conditions: platelet; Not Active = under 50% inhibition at 10 µM
[5] = biological target: Receptor tyrosine-protein kinase erbB-2 (Homo sapiens, UniProt P04626); assay: biochemical; type: cell-based, Insect cells; conditions: insect cells;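 note: inhibition of HER2 kinase enzyme activity, measured with Poly(Glu:Tyr) as the phosphorylation substrate; in other assays of this panel Not Active means under 50% inhibition at 10 µM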
Sequence of Receptor tyrosine-protein kinase erbB-2 (P04626 whole entry): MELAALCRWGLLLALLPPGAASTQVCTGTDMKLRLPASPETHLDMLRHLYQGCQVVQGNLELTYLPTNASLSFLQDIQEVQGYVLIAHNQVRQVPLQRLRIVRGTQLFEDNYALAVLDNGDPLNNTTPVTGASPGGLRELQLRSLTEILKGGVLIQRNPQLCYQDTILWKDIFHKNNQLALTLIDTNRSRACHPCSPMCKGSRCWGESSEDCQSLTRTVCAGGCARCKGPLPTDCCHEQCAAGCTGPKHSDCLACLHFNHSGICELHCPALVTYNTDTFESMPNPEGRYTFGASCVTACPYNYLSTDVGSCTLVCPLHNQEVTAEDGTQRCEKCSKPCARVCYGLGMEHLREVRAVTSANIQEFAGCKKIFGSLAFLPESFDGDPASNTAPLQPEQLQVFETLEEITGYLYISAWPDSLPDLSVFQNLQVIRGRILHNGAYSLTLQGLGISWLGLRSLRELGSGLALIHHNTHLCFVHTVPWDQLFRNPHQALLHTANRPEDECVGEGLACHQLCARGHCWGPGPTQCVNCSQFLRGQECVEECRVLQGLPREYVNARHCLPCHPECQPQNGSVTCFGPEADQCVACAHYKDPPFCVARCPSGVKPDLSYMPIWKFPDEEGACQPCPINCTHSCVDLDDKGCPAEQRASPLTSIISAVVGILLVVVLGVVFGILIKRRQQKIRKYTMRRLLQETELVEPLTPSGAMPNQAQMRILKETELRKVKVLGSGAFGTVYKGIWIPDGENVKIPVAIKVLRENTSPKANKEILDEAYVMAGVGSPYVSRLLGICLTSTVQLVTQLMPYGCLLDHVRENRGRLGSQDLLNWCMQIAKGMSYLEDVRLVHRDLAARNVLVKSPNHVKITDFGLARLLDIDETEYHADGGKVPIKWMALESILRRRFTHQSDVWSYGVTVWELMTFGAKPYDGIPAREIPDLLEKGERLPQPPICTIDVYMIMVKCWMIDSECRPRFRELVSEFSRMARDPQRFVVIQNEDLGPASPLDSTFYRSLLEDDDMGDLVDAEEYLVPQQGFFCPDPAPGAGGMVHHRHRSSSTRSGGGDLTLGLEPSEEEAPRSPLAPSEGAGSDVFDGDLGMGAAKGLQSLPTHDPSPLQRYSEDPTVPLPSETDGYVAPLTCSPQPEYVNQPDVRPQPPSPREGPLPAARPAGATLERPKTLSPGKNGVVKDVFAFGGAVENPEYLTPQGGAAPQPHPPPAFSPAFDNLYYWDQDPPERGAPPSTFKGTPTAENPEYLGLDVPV

[6] = biological target: T1, Receptor-type tyrosine-protein phosphatase C (Homo sapiens, UniProt P08575); parameters: species or system Escherichia coli;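 note: inhibition of CD45 enzyme activity measured using DiFMUP as substrate; in other assays of this panel Not Active means under 50% inhibition at 10 µM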
T1 sequence (P08575 whole entry): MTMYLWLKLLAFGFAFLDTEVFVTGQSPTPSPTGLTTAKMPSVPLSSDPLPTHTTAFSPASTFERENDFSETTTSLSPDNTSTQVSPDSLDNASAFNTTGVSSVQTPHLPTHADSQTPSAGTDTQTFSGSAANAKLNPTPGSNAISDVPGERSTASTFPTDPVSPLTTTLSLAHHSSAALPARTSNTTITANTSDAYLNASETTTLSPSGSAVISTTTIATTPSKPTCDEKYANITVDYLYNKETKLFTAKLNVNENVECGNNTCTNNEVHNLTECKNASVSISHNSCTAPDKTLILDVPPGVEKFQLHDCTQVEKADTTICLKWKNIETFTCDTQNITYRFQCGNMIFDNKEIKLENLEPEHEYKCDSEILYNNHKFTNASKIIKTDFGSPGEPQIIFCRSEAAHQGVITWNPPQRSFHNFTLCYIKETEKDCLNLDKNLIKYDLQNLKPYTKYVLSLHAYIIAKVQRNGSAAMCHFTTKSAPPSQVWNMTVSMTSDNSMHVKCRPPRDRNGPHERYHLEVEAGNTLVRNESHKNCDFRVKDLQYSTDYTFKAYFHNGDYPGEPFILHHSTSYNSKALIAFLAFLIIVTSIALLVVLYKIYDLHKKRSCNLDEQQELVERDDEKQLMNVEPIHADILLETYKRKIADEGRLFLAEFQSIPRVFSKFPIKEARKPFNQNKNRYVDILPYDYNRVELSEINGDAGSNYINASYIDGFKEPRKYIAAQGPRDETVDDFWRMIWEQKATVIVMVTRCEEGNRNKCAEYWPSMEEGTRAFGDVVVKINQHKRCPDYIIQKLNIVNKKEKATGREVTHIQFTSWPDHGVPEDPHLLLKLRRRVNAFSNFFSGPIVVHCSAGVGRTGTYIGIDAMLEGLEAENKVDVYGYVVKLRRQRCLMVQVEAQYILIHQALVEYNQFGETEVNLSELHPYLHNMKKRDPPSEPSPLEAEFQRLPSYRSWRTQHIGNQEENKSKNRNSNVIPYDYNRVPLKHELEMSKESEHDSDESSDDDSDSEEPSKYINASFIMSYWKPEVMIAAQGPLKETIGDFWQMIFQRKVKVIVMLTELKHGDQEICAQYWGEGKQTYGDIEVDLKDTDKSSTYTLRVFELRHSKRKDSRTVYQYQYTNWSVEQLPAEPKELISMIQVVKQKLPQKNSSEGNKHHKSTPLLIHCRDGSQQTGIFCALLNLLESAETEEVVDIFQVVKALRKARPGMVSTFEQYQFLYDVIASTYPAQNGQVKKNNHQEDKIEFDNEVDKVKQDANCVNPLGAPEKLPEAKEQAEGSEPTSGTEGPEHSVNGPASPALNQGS

[7] = biological target: Cytochrome P450 2D6 (Homo sapiens, UniProt P10635); conditions: bti-tn-5b1-4; note: in other assays of this panel Not Active means under 50% inhibition at 10 µM
Sequence of Cytochrome P450 2D6 (P10635 whole entry): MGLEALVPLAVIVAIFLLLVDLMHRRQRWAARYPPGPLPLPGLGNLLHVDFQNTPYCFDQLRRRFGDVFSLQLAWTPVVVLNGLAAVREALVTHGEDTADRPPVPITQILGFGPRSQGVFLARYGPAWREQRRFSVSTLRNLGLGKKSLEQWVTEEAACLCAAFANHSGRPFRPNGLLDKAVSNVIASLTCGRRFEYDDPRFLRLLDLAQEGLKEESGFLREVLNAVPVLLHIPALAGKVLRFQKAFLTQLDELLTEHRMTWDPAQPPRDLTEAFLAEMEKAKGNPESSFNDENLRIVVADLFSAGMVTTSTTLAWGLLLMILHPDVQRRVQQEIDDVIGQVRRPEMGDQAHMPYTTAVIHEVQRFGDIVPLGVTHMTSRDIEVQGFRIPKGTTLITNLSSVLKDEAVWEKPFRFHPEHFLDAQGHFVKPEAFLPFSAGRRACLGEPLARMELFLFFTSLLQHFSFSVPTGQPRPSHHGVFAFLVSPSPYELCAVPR

[8] = biological target: T2, Estrogen receptor (Homo sapiens, UniProt P03372); conditions: sf9; note: in other assays of this panel Not Active means under 50% inhibition at 10 µM
T2 sequence (P03372 whole entry): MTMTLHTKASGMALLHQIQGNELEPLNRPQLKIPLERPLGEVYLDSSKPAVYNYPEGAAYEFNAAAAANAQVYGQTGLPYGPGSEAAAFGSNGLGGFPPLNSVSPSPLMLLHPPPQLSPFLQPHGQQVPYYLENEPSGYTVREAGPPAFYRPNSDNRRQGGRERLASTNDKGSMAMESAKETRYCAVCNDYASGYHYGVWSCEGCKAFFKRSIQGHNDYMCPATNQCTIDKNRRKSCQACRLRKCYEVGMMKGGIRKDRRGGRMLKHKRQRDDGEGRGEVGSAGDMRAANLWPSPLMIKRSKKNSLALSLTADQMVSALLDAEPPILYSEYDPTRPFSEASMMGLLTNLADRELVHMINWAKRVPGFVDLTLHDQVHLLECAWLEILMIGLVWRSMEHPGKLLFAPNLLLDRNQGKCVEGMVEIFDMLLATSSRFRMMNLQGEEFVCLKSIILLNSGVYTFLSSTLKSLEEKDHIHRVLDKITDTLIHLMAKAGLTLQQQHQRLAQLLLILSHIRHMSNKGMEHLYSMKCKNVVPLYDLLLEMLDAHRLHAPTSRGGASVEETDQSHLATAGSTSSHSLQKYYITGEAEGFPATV

O=C(O)CCCc1cccs1
Not Active: IC50 [1] | Ki [1] | IC50 [2] | IC50 [3] | IC50 [4] | Ki [4] | IC50 [5] | IC50 [6] | IC50 [7] | Ki [7] | IC50 [8]

O=C(c1ccccc1F)N1CCC(Cc2ccccc2)CC1
Not Active: IC50 [1] | Ki [1] | IC50 [2] | IC50 [3] | IC50 [4] | Ki [4] | IC50 [5] | IC50 [6] | IC50 [7] | Ki [7] | IC50 [8]

CC(O)COC[C@H]1O[C@@H]2O[C@H]3[C@H](O)[C@@H](O)[C@@H](O[C@H]4[C@H](O)[C@@H](O)[C@@H](O[C@H]5[C@H](O)[C@@H](O)[C@@H](O[C@H]6[C@H](O)[C@@H](O)[C@@H](O[C@H]7[C@H](O)[C@@H](O)[C@@H](O[C@H]8[C@H](O)[C@@H](O)[C@@H](O[C@H]1[C@H](O)[C@H]2O)O[C@@H]8COCC(C)O)O[C@@H]7COCC(C)O)O[C@@H]6COCC(C)O)O[C@@H]5COCC(C)O)O[C@@H]4COCC(C)O)O[C@@H]3COCC(C)O (stereo partly drawn) [2-HYDROXYPROPYL-BETA-CYCLODEXTRIN]
Not Active: IC50 [1] | Ki [1] | IC50 [2] | IC50 [3] | IC50 [4] | Ki [4] | IC50 [5] | IC50 [6] | IC50 [7] | Ki [7] | IC50 [8]

NC(=O)c1cccc(N)c1 [3-AMINOBENZAMIDE]
Not Active: IC50 [1] | Ki [1] | IC50 [2] | IC50 [3] | IC50 [4] | Ki [4] | IC50 [5] | IC50 [6] | IC50 [7] | Ki [7] | IC50 [8]

NCCCNCCSP(=O)(O)O [AMIFOSTINE]
Not Active: IC50 [1] | Ki [1] | IC50 [2] | IC50 [3] | IC50 [4] | Ki [4] | IC50 [5] | IC50 [6] | IC50 [7] | Ki [7] | IC50 [8]

CN(C)CCC=C1c2ccccc2CCc2ccccc21 [AMITRIPTYLINE]
Not Active: IC50 [1] | Ki [1] | IC50 [2] | IC50 [3] | IC50 [4] | Ki [4] | IC50 [5] | IC50 [6] | IC50 [7] | Ki [7] | IC50 [8]

CC(C)(C(=O)O)c1ccc(C(O)CCCN2CCC(C(O)(c3ccccc3)c3ccccc3)CC2)cc1 (stereo not given) [FEXOFENADINE]
Not Active: IC50 [1] | Ki [1] | IC50 [2] | IC50 [3] | IC50 [4] | Ki [4] | IC50 [5] | IC50 [6] | IC50 [8]

CC(=O)OCC(=O)[C@@]12OC(C)(C)O[C@@H]1C[C@H]1[C@@H]3C[C@H](F)C4=CC(=O)C=C[C@]4(C)[C@@]3(F)[C@@H](O)C[C@@]12C [FLUOCINONIDE]
Not Active: IC50 [1] | Ki [1] | IC50 [2] | IC50 [3] | IC50 [4] | Ki [4] | IC50 [5] | IC50 [6] | IC50 [8]

N[C@@H](Cn1ccc(=O)c(O)c1)C(=O)O [L-MIMOSINE]
Not Active: IC50 [1] | Ki [1] | IC50 [2] | IC50 [3] | IC50 [4] | Ki [4] | IC50 [5] | IC50 [6] | IC50 [8]

C[C@@H]1C/C=C/C=C/C=C/C=C/[C@H](O[C@@H]2O[C@H](C)[C@@H](O)[C@H](N)[C@@H]2O)C[C@@H]2O[C@](O)(C[C@@H](O)C[C@H]3O[C@@H]3/C=C/C(=O)O1)C[C@H](O)[C@H]2C(=O)O [NATAMYCIN]
Not Active: IC50 [1] | Ki [1] | IC50 [2] | IC50 [3] | IC50 [4] | Ki [4] | IC50 [5] | IC50 [6] | IC50 [8]

NNCCc1ccccc1 [PHENELZINE]
Not Active: IC50 [1] | Ki [1] | IC50 [2] | IC50 [3] | IC50 [4] | Ki [4] | IC50 [5] | IC50 [6] | IC50 [8]

CC[C@]1(O)C[C@@H]2CN(CCc3c([nH]c4ccccc34)[C@@](C(=O)OC)(c3cc4c(cc3OC)N(C)[C@H]3[C@@](O)(C(N)=O)[C@H](O)[C@]5(CC)C=CCN6CC[C@]43[C@@H]65)C2)C1 [VINDESINE]
Not Active: IC50 [1] | Ki [1] | IC50 [2] | IC50 [3] | IC50 [4] | Ki [4] | IC50 [5] | IC50 [6] | IC50 [8]
